Converted amounts (≈) assume the structure as drawn. “And” between values parts separate entries of the source, which are not always exact repeats. Equal entries are not always repeated. Where two headings read alike, the source gives them in different places.
Assays:
[1] = tested on: H. picinus (Nitidulid beetle); experiment: Median lethal time (LT50) test, Nitidulid beetle; format: in vivo, Haptoncus picinus
Text: (§1) All treatments and controls were in triplicate.
(§2) Toxicity of Monoterpenes as Fumigants. […] Therefore, to determine how fast the monoterpenes act as fumigants, it was necessary to determine their LT50 values for the target organisms.

[2] = tested on: Megalurothrips usitatus (Bagrall) (thrips); experiment: Median lethal concentration fumigation test, thrips
Text: (§3) Median Lethal Concentration Tests. […] The species tested included Thrips (M. usitatus), spider mite (T. cinnabarinus), melon fly (B. cucuribitae), cockroach (B. lateralis), housefly (M. domestica), mosquito (A. aegypti), parasitic wasp (T. chilonis) and fruit fly (Drosophila melanogaster). After being exposed to the test chemicals for one hour, adult Thrips, spider mites, and roaches were transferred to another flask. In addition to fresh water, adult Thrips, spider mites, and roaches were then respectively fed with cowpea, fresh blade of eggplant, and peanut oil via filter. […] Mortality of melon fly was observed after three hours of exposure.

[3] = tested on: T. castaneum (red flour beetle); experiment: Median lethal time (LT50) test, red flour beetle; format: in vivo, Tribolium castaneum
Text: as §1, §2

[4] = tested on: Aedes aegypti (Linnaeus) (mosquito)
Text: as §3

[5] = tested on: Blatta lateralis (Walker) (cockroach)
Text: as §3

[6] = tested on: Musca domestica (Linnaeus) (housefly)
Text: as §3

[7] = tested on: Bactrocera cucuribitae (Coquillett) (melon fly)
Text: as §3

[8] = tested on: Tetranychus cinnabarinus (Boisduval) (spider mites)
Text: as §3

[9] = tested on: Drosophila melanogaster (fruit fly); experiment: Median lethal concentration fumigation test, fruit fly; format: in vivo; conditions: mortality after 280 minutes
[10] = molecular target: T1, recombinant gamma-aminobutyric acid receptor-associated protein (rGABARAP) (Frankliniella occidentalis, UniProt A0A6J1T1Q2); experiment: Microscale thermophoresis (MST) binding to rGABARAP
Text: (§4) Preparation of recombinant GABARAP (rGABARAP) protein. RNA was extracted from F. occidentalis and cDNA was then synthesized. GABARAP (GenBank accession No. LOC113211372) was obtained after PCR amplification (Stafford-Banks, et al. (2014) Plos One 9:e94447).
(§5) Interaction between ME and rGABARAP. A Nano Temper Monolith NT.115 MST system (Nano Temper, Munich, Germany) was used to assess the binding affinities between the target compounds and rGABARAP according to the published procedures (Zan, et al. (2020) Journal of Agricultural and Food Chemistry 68:6280-6285). Spinosyn A was used as a chemical positive control. Spinosyn A (≥1 nM) can trigger a change of the Cl^− current of insect neuron GABAAR, which is considered to be an insecticidal action mechanism of spinosyn A (Watson (2001) Pesticide Biochemistry and Physiology 71:20-28). Ovalbumin (OVA) (Sangon Biotech, Shanghai, China) is a control protein consisting of 385 amino acid residues. The interaction between OVA and ME was used as a protein control experiment (Huntington, et al. (1995) Protein Science 4:613-621).

[11] = tested on: B. cucuribitae (melon fly); experiment: Median lethal time (LT50) test, melon fly; format: in vivo, Bactrocera cucuribitae
Text: as §1, §2

honeybee Apis mellifera = experiment: 24-hour fumigation assay on honeybee; conditions: for Mortality ± STD: 60 bees; for toxicity to honeybee (in words): 24-hour fumigation
Text: Experiments were done with 20 bees per group in triplicate.
Activity of Monoterpenes Against Honeybees. The honeybee (Apis mellifera) is the most frequent floral visitor of crops worldwide.

[12] = tested on: A. japonicus (parasitic wasp); experiment: Median lethal time (LT50) test, parasitic wasp (natural enemy)
Procedure: (§6) Insect Egg Parasitic Wasp (Natural Enemy). […] Both species were purchased from a commercial source. One- to two-day-old adults (after eclosion) were used for fumigation tests.
Median Lethal Time (LT50) and Median Knockdown Concentration (KC50) Tests. Five species of adult insects or natural enemies were tested for LT50 values including melon fly (B. cucuribitae), red flour beetle (T. castaneum), Nitidulidae beetle (H. picinus), parasitic wasp (A. japonicus) and housefly (M. domestica). For each treatment and control, 20 insects at the developmental stages described above were placed individually without food in a 1-L wide-mouth glass bottle (height 19.5 cm, bottom diameter 10.5 cm, mouth i.d. 5.5 cm) containing pieces of tissue paper. […] Five different concentrations of the test chemicals were placed on pieces of cellulose-based qualitative filter paper. Each of the filter papers was placed in a bottle to have 5 appropriate concentrations in serial dilutions. DDVP was the positive control, and no chemical treatments were the negative control. All treatments and controls were in triplicate. Mortality was observed periodically in a 10-30 minute interval for 2 days or until all insects died. The death was defined as no movement when the insects were touched.

[13] = tested on: Thrips Megalurothrips usitatus; conditions: 24-hour fumigation assay, 0-0.192 μL/dm^3
[14] = tested on: Musca domestica (housefly); experiment: Median knockdown concentration (KC50) test, housefly; format: in vivo; conditions: Musca domestica
Text: as §1
(§7) Knockdown Activity of Monoterpenes.

Aedes aegypti (mosquito) = experiment: Median knockdown concentration (KC50) test, mosquito; format: in vivo
Text: as §1, §7

[15] = tested on: T. chilonis (parasitic wasp); conditions: non-target parasitic wasp, mortality after 15 minutes of exposure
Text: as §6, §3

[16] = T 25 °C; cited from earlier work
[17] = tested on: Megalurothrips usitatus (flower Thrips); conditions: adult M. usitatus, 24 hours of fumigation in 1-L flasks
adult T. palmi = conditions: cited from earlier work
rGABARAP^Y174A [18] = molecular target: T2, rGABARAP^Y174A (Frankliniella occidentalis, UniProt A0A6J1T1Q2); experiment: ITC binding to rGABARAP mutant
Procedure: (§8) The isothermal titration thermal binding measurements were performed with an ITC-200 calorimeter (GE Healthcare, Boston, MA) at 25° C. in a buffer containing 50 mM Tris-HCl and 100 mM NaCl (pH 7.4). […] The MicroCal Origin 7.0 software system was used for data processing. The first run was a pre-run and was excluded from the final data. The amount of protein in the sample pool was constant. […] The experimental bimolecular interaction data from the 18 drops were used to calculate the dissociation constant. The dissociation constant […] was calculated as 1/K (Li, et al. (2018) RSC Advances 8:18952-18958).
(§9) Preparation of rGABARAP Mutant and Interaction Between ME and rGABARAP Mutant. […] DNAman was used to convert the nucleic acid sequence into an amino acid sequence and find the Y174 site. Y174 was mutated to A174. The rGABARAP mutant gene loaded into the pMCSG19 vector and the His tags at both ends of the sequence were retained to construct a prokaryotic expression plasmid. The carrier contained a maltose binding protein (MBP) tag that was not cut for verification. However, MBP and ME were used as treatment controls. The mutant plasmid was constructed in Sangon Biotech (Shanghai, China). The protein expression, purification, and desalting procedures of rGABARAP^Y174A mutant and rGABARAP were the same. Subsequently, the binding kinetics of ME and rGABARAP^Y174A were tested by MST and ITC.

[19] = molecular target: T1, recombinant gamma-aminobutyric acid receptor-associated protein (rGABARAP); experiment: Isothermal titration calorimetry (ITC) binding to rGABARAP; conditions: 25° C., pH 7.4
Procedure: as §4, §8

rGABARAP^Y174A [20] = molecular target: T2, rGABARAP^Y174A; experiment: MST binding to rGABARAP mutant; conditions: read-out: Kd value, MST
Procedure: as §5, §9

[21] = tested on: Frankliniella occidentalis second-instar nymphs; experiment: whole plant or invertebrate; conditions: 24 h
Procedure: Chemicals. […] These monoterpenes and the positive control spinosyn A (Bosite Technology, Chongqing, China) were dissolved in acetone (10 g/L).
Insects. F. occidentalis Thrips were provided by the Institute of Vegetables and Flowers, Chinese Academy of Agricultural Sciences (Beijing, China), and kept in a box (19 cm×14 cm×20 cm) at 27±1° C., humidity of 50%-60% and a photoperiod of 16:8 h (light:dark). The population was established with sword beans (Canavalia gladiata). Second-instar nymphs with the same growth were tested.
Insect Assays. […] The leaf blade (2 cm×3 cm) was immersed in the solution for 10 s in the test solution, and then air-dried until there were no water drops on the surface. The concentrations were the same as those used in the insecticide-impregnated membrane method. After the chemical film had been formed for 2 h, the infusion leaves were placed in the bottles. The second-instar nymphs were picked with a soft writing brush to make up ten insects per bottle. The bottles were sealed with plastic wrap. 1% Triton X-100 (m/V) aqueous solution as a blank control. Each treatment was repeated four times. The bottles were placed under temperature of 27±1° C., humidity of 50%-60% and photoperiod of 16:8 h (light:dark). […] The insects were touched with a soft brush and numbers of dead and living Thrips were recorded, followed by calculation of the mortality rates.

[22] = adult thrips, exposed one hour, mortality observed in 24 hours
[23] = rGABARAP, read-out: Kd value, MST

T1 sequence (A0A6J1T1Q2 1-118): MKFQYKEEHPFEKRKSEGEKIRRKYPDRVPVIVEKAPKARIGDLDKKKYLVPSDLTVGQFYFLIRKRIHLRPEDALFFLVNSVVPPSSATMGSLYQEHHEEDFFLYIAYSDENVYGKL
T2 sequence (A0A6J1T1Q2 entry or part of it, stated change not applied): as the sequence (A0A6J1T1Q2 1-118) above

CC(C)=C1CC[C@@H](C)CC1=O [(+)-Pulegone]
LT50 (fiducial limits) [1]: 0.50 h
fold faster action relative to the other five monoterpenes (LT50) [1]: ≥ 1.2 fold
LT50 (fiducial limits) ([1]; listed as (+)-pulegone): 0.500 h
LC50 (fiducial limits) [2, 22]: 0.20 µg/mL (≈ 1.31 µM)
LC90 (fiducial limits) [2, 22]: 0.67 µg/mL (≈ 4.4 µM)
LC50 (fiducial limits) ([2]; adult thrips, exposed one hour, mortality observed in 24 hours, listed as (+)-pulegone): 0.196 µg/mL (≈ 1.29 µM)
activity fold greater (smaller LC50) than positive control DDVP ([2]; thrips): 3.5 fold
LT50 (fiducial limits) [3]: 3.47 h
LC90 (fiducial limits) ([4]; adult mosquito, exposed 30 minutes, mortality in 24 hours): 16.8 µg/mL (≈ 110 µM)
LC50 (fiducial limits) ([4]; in vivo): 10.3 µg/mL (≈ 67.7 µM)
LC90 (fiducial limits) ([5]; cockroach second instar nymphs, exposed one hour): 173 µg/mL (≈ 1140 µM)
LC50 (fiducial limits) ([5]; in vivo): 15.0 µg/mL (≈ 98.5 µM)
LC90 (fiducial limits) ([6]; adult housefly, exposed one hour, mortality in 24 hours): 11.9 µg/mL (≈ 78.2 µM)
LC50 (fiducial limits) ([6]; in vivo): 7.38 µg/mL (≈ 48.5 µM)
LC50 (fiducial limits) ([7]; in vivo): 112 µg/mL (≈ 736 µM)
LC90 (fiducial limits) ([7]; melon fly): 657 µg/mL (≈ 4320 µM)
LC50 (fiducial limits) ([8]; in vivo): 2.52 µg/mL (≈ 16.6 µM)
LC90 (fiducial limits) ([8]; spider mites, exposed one hour): 40.8 µg/mL (≈ 268 µM)
LC50 (fiducial limits) [9]: 0.043 ng/mL (≈ 0.000282 µM)
LC90 (fiducial limits) [9]: 0.00014 µg/mL (≈ 0.00092 µM)
Kd [10, 23]: 1.72 µM
LT50 (fiducial limits) [11]: 0.87 h
fold faster action relative to the other five monoterpenes (LT50) [11]: at least 1.9 fold
Mortality ± STD (honeybee Apis mellifera; 0.012 μL/dm^3, 24-hour fumigation): 5.0 ± 8.7%
Mortality ± STD (honeybee Apis mellifera; 0.024 μL/dm^3, 24-hour fumigation): 3.3 ± 5.8%
Mortality ± STD (honeybee Apis mellifera; 0.048 μL/dm^3, 24-hour fumigation): 5.0 ± 5.0%
Mortality ± STD (honeybee Apis mellifera; 0.096 μL/dm^3, 24-hour fumigation): 5.0 ± 5.0%
Mortality ± STD (honeybee Apis mellifera; 0.192 μL/dm^3, 24-hour fumigation): 8.3 ± 7.6%
mortality relative to no chemical control (honeybee Apis mellifera; 0.2 μL/dm^3, 24-hour fumigation): 3%
toxicity to honeybee (in words) (honeybee Apis mellifera): little lethal toxicity
toxicity to honeybee (in words) (honeybee Apis mellifera; listed as (+)-pulegone): failed to have a negative impact
LT50 fold greater than that of DDVP ([12]; A. japonicus): approximately 1.2 fold
LT50 (fiducial limits) against A. japonicus ([12]; non-target parasitic wasp): 0.47 (0.00-0.68) hour
LC50 [13]: 0.079 μL/dm^3
KC50 (fiducial limits) ([14]; 20 Minutes): >243 µg/mL
KC50 (fiducial limits) ([14]; 30 Minutes): 12.2 µg/mL
KC50 (fiducial limits) (Aedes aegypti (mosquito); 10 Minutes): 19.6(8.41-35.5) μg/cm^3
KC50 (fiducial limits) (Aedes aegypti (mosquito); 20 Minutes): 1.40 µg/mL
KC50 (fiducial limits) (Aedes aegypti (mosquito); 30 Minutes): 1.4 µg/mL
LC50 (fiducial limits) against T. chilonis [15]: 2.02 µg/mL and 2.06 µg/mL
LC90 (fiducial limits) against T. chilonis [15]: 12.1 µg/mL (≈ 79.5 µM)
Vp (Pa)/T (° C.) [16]: 16.3/25 Pa
activity against flower Thrips in preliminary screening [17]: exhibit insecticidal activity

CC(C)=C1CC[C@H](C)CC1=O [(−)-Pulegone]
LC50 (fiducial limits) [9]: 0.106 ng/mL (≈ 0.000696 µM)
LC90 (fiducial limits) [9]: 0.000359 µg/mL (≈ 0.00236 µM)
Kd [10, 23]: 2.53 µM
LC50, fumigation toxicity (adult T. palmi): 9.5 µg/mL (≈ 62.4 µM)
LC50 [13]: 0.119 μL/dm^3
Vp (Pa)/T (° C.) [16]: 16.3/25 Pa

COc1cccc2c1cc([N+](=O)[O-])c1c(C(=O)O)cc3c(c12)OCO3 [Aristolochic acid A, 3,4-methylenedioxy-8-methoxy-10-nitro-1-phenanthrenecarboxylicacid, reference compound]
Kd value, ITC (rGABARAP^Y174A [18]): No binding
Kd value, ITC [19]: no binding
Kd [10]: 146 µM
Kd (rGABARAP^Y174A [20]): 158 ± 82 µM
LC50 [21]: 40 µg/mL (≈ 117 µM)
